In US10526336B2, “Fused heteroaryl derivatives as orexin receptor antagonists” (Merck Sharp & Dohme Corp., priority 2014, dated 2020) one finds IC50 data, which are given here for 25 compounds.

pIC50: −log10 of the molar value.

The test addresses human orexin-2 receptor (Homo sapiens (Human), UniProt O43614). The test can be described thus: FLIPR Ca2+ Flux Assay, orexin-2 receptor antagonism in CHO cells. The following applies: CHO cells expressing the human orexin-2 receptor; agonist 70 pM Ala-6,12 orexin-A; read-out: hOX2 FLIPR IC50. Type of test: cell-based. The method, then: The utility of the compounds in accordance with the present invention as orexin receptor OX1R and/or OX2R antagonists may be readily determined without undue experimentation by methodology well known in the art, including the “FLIPR Ca^2+ Flux Assay” (Okumura et al., Biochem. Biophys. Res. Comm. 280:976-981, 2001). In a typical experiment the OX1 and OX2 receptor antagonistic activity of the compounds of the present invention was determined in accordance with the following experimental method. For intracellular calcium measurements, Chinese hamster ovary (CHO) cells expressing the rat orexin-1 receptor or the human orexin-2 receptor, are grown in Iscove's modified DMEM containing 2 mM L-glutamine, […], 1% hypoxanthine-thymidine supplement, 100 U/ml penicillin, 100 μg/ml streptomycin and 10% heat-inactivated fetal calf serum (FCS). The cells are seeded at 20,000 cells/well into Becton-Dickinson black 384-well clear bottom sterile plates coated with poly-D-lysine. All reagents are from GIBCO-Invitrogen Corp. The seeded plates are incubated overnight at 37° C. and 5% CO2. Ala-6,12 human orexin-A as the agonist is prepared as a 1 mM stock solution in 1% bovine serum albumin (BSA) and diluted in assay buffer (HBSS containing 20 mM HEPES, 0.1% BSA and 2.5 mM probenecid, pH7.4) for use in the assay at a final concentration of 70 pM. Test compounds are prepared as 10 mM stock solution in DMSO, then diluted in 384-well plates, first in DMSO, then assay buffer. On the day of the assay, cells are washed 3 times with 100 μl assay buffer and then incubated for 60 min (37° C., 5% CO2) in 60 μl assay buffer containing […] Fluo-4AM ester, 0.02% pluronic acid, and 1% BSA. The dye loading solution is then aspirated and cells are washed 3 times with 100 μl assay buffer. 30 μl of that same buffer is left in each well. Within the Fluorescent Imaging Plate Reader (FLIPR, Molecular Devices), test compounds are added to the plate in a volume of 25 μl, incubated for 5 min and finally 25 μl of agonist is added. Fluorescence is measured for each well at 1 second intervals for 5 minutes and the height of each fluorescence peak is compared to the height of the fluorescence peak induced by 70 pM Ala-6,12 orexin-A with buffer in place of antagonist. For each antagonist, IC50 value (the concentration of compound needed to inhibit 50% of the agonist response) is determined. Alternatively, compound potency can be assessed by a radioligand binding assay (described in Bergman et. al. Bioorg. Med. Chem. Lett. 2008, 18, 1425-1430) in which the inhibition constant (Ki) is determined in membranes prepared from CHO cells expressing either the OX1 or OX2 receptor. The intrinsic orexin receptor antagonist activity of a compound which may be used in the present invention may be determined by these assays.
For orientation: A change in cytosolic calcium serves as a functional read-out for many receptors and channels.

human orexin-2 receptor, sequence (O43614 whole entry): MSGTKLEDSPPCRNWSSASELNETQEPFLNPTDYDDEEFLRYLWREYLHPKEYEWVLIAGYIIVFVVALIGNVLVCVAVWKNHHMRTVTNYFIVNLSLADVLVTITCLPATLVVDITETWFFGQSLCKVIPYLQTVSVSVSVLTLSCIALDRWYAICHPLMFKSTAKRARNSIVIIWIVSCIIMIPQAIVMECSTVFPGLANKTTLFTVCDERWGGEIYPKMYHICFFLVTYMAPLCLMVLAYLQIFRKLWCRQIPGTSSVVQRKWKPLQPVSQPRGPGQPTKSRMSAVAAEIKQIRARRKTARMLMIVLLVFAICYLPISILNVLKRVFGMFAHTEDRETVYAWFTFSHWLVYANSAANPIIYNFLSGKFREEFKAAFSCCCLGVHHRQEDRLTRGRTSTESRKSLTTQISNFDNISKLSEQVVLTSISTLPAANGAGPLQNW

On to `Cc1cn2ccnc(O[C@@H]3CC[C@@H](C)N(C(=O)c4ccccc4CS(C)(=O)=O)C3)c2n1` [Example 12, ((2R,5R)-2-methyl-5-((2-methylimidazo[1,2-α]pyrazin-8-yl)oxy)piperidin-1-yl)(2-((methylsulfonyl)methyl)phenyl)methanone], for which the negative-log IC50 (pIC50) (usually the negative decadic logarithm of the IC50, by convention in mol/L) was 7.34.

Regarding `C[C@@H]1CC[C@@H](Oc2nccn3ccnc23)CN1C(=O)c1ccccc1CC(F)(F)F` [Example 3, ((2R,5R)-5-(imidazo[1,2-α]pyrazin-8-yloxy)-2-methylpiperidin-1-yl)(2-(2,2,2-trifluoroethyl)phenyl)methanone], the negative-log IC50 (pIC50) is 7.30.

As for `C[C@@H]1CC[C@@H](Nc2nccc3c2cnn3C)CN1C(=O)c1ccccc1-n1nccn1` [Example 96, (2-(2H-1,2,3-triazol-2-yl)phenyl)((2R,5R)-2-methyl-5-((1-methyl-1H-pyrazolo[4,3-c]pyridin-4-yl)amino)piperidin-1-yl)methanone], the negative-log IC50 (pIC50) was 7.22. As for `C[C@@H]1CC[C@@H](Oc2nccn3c(Cl)cnc23)CN1C(=O)c1ccccc1-n1ncnn1` [Example 27, (2-(2H-tetrazol-2-yl)phenyl) ((2R,5R)-5-((3-chloroimidazo[1,2-α]pyrazin-8-yl)oxy)-2-methylpiperidin-1-yl)methanone], the pIC50 was 8.04.

Regarding `C[C@@H]1CC[C@@H](Oc2nccn3ccnc23)CN1C(=O)c1ccccc1-n1nccn1` [Example 1, (2-(2H-1,2,3-triazol-2-yl)phenyl)((2R,5R)-5-(imidazo[1,2-a]pyrazin-8-yloxy)-2-methylpiperidin-1-yl)methanone], the pIC50 was 7.45.

`C[C@@H]1CC[C@@H](Oc2nccn3c(Cl)cnc23)CN1C(=O)c1ccccc1-n1nccn1` [Example 26, (2-(2H-1,2,3-triazol-2-yl)phenyl)((2R,5R)-5-((3-chloroimidazo[1,2-a]pyrazin-8-yl)oxy)-2-methylpiperidin-1-yl)methanone]: the pIC50 was 7.92.

Take `C[C@@H]1CC[C@@H](Nc2nccn3cc(C(F)(F)F)nc23)CN1C(=O)c1ccsc1-n1nccn1` [Example 23, (2-(2H-1,2,3-triazol-2-yl)thiophen-3-yl) ((2R,5R)-2-methyl-5-((2-(trifluoromethyl)imidazo[1,2-α]pyrazin-8-yl)amino)piperidin-1-yl)methanone]: the negative-log IC50 (pIC50) was 7.00. On to `C[C@@H]1CC[C@@H](Oc2nccn3c(C(F)F)cnc23)CN1C(=O)c1ncccc1-c1ccccc1` [Example 49, ((2R,5R)-5-((3-(difluoromethyl)imidazo[1,2-α]pyrazin-8-yl)oxy)-2-methylpiperidin-1-yl)(3-phenylpyridin-2-yl)methanone], for which the pIC50 was 7.29. In the case of `Cc1cnc2c(O[C@@H]3CC[C@@H](C)N(C(=O)c4ccccc4-n4nccn4)C3)nccn12` [Example 34, (2-(2H-1,2,3-triazol-2-yl)phenyl)((2R,5R)-2-methyl-5-((3-methylimidazo[1,2-a]pyrazin-8-yl)oxy)piperidin-1-yl)methanone] it was 7.79; in that of `C[C@@H]1CC[C@@H](Oc2nccn3c(C(F)(F)F)cnc23)CN1C(=O)c1ccccc1-n1ncnn1` [Example 60, (2-(2H-tetrazol-2-yl)phenyl)((2R,5R)-2-methyl-5-((3-(trifluoromethyl)imidazo [1,2-α]pyrazin-8-yl)oxy)piperidin-1-yl)methanone], 7.72. In the case of `C[C@@H]1CC[C@@H](Sc2nccn3ccnc23)CN1C(=O)c1ccccc1-n1nccn1` [Example 5, (2-(2H-1,2,3-triazol-2-yl)phenyl)((2R,5R)-5-(imidazo[1,2-a]pyrazin-8-ylthio)-2-methylpiperidin-1-yl)methanone] it was 7.99. Consider `CCCc1ccccc1C(=O)N1C[C@H](Oc2nccn3nccc23)CC[C@H]1C` [Example 82, ((2R,5R)-2-methyl-5-(pyrazolo [1,5-α]pyrazin-4-yloxy)piperidin-1-yl) (2-propylphenyl)methanone], for which the pIC50 is 7.47.

On to `C[C@@H]1CC[C@@H](Nc2nccn3nccc23)CN1C(=O)c1ccccc1-n1nccn1` [Example 86, (2-(2H-1,2,3-triazol-2-yl)phenyl)((2R,5R)-2-methyl-5-(pyrazolo[1,5-a]pyrazin-4-ylamino)piperidin-1-yl)methanone], for which the negative-log IC50 (pIC50) was 7.69. In the case of `C[C@@H]1CC[C@@H](Nc2nccn3c(Cl)cnc23)CN1C(=O)c1ccccc1-c1ncccn1` [Example 31, ((2R,5R)-5-((3-chloroimidazo[1,2-a]pyrazin-8-yl)amino)-2-methylpiperidin-1-yl)(2-(pyrimidin-2-yl)phenyl)methanone] it was 7.63. For `Cc1nc2ccnc(N[C@@H]3CC[C@@H](C)N(C(=O)c4ccccc4-n4nccn4)C3)n2n1` [Example 105, (2-(2H-1,2,3-triazol-2-yl)phenyl)((2R,5R)-2-methyl-5-((2-methyl-[1,2,4]triazolo[1,5-c]pyrimidin-5-yl)amino)piperidin-1-yl)methanone], the negative-log IC50 (pIC50) was 7.56. Take `C[C@@H]1CC[C@@H](Oc2nccn3c(C(F)F)cnc23)CN1C(=O)c1ccccc1C1(C#N)CC1` [Example 42, 1-(2-((2R,5R)-5-((3-(difluoromethyl)imidazo[1,2-α]pyrazin-8-yl)oxy)-2-methylpiperidine-1-carbonyl)phenyl)cyclopropanecarbonitrile]: the pIC50 was 8.30.

With `C[C@@H]1CC[C@@H](Oc2nccn3cc(CO)nc23)CN1C(=O)c1ccccc1-n1nccn1` [Example 25, (2-(2H-1,2,3-triazol-2-yl)phenyl)((2R,5R)-5-((2-(hydroxymethyl)imidazo[1,2-a]pyrazin-8-yl)oxy)-2-methylpiperidin-1-yl)methanone], the pIC50 is 7.31. For `COC(=O)c1ccccc1C(=O)N1C[C@H](Oc2ccnc3ocnc23)CC[C@H]1C` [Example 93, methyl 2-((2R,5R)-2-methyl-5-(oxazolo[5,4-b]pyridin-7-yloxy)piperidine-1-carbonyl)benzoate] the value was 7.33. In the case of `C[C@@H]1CC[C@@H](Oc2nccn3c(F)cnc23)CN1C(=O)c1ccccc1-n1nccn1` [Example 32, (2-(2H-1,2,3-triazol-2-yl)phenyl)((2R,5R)-5-((3-fluoroimidazo[1,2-a]pyrazin-8-yl)oxy)-2-methylpiperidin-1-yl)methanone] it was 7.90; in that of `C=Cc1cnc2c(O[C@@H]3CC[C@@H](C)N(C(=O)c4ccccc4-n4nccn4)C3)nccn12` [Example 36, (2-(2H-1,2,3-triazol-2-yl)phenyl)((2R,5R)-2-methyl-5-((3-vinylimidazo[1,2-a]pyrazin-8-yl)oxy)piperidin-1-yl)methanone], 7.68; in that of `C[C@@H]1CC[C@@H](Oc2nccn3c(C(F)(F)F)cnc23)CN1C(=O)c1cccnc1-n1cccn1` [Example 65, (2-(1H-pyrazol-1-yl)pyridin-3-yl) ((2R,5R)-2-methyl-5-((3-(trifluoromethyl)imidazo [1,2-α]pyrazin-8-yl)oxy)piperidin-1-yl)methanone], 7.62.

As for `C[C@@H]1CC[C@@H](Oc2cccn3nccc23)CN1C(=O)c1ccccc1-n1nccn1` [Example 90, (2-(2H-1,2,3-triazol-2-yl)phenyl)((2R,5R)-2-methyl-5-(pyrazolo[1,5-a]pyridin-4-yloxy)piperidin-1-yl)methanone], the pIC50 was 6.90. As to `C[C@@H]1CC[C@@H](Oc2cccn3c(=O)n(C)nc23)CN1C(=O)c1ccccc1-n1nccn1` [Example 106, 8-(((3R,6R)-1-(2-(2H-1,2,3-triazol-2-yl)benzoyl)-6-methylpiperidin-3-yl)oxy)-2-methyl-[1,2,4]triazolo[4,3-a]pyridin-3(2H)-one], the negative logarithm of the IC50 (pIC50) was 6.75. For `CCCc1ccccc1C(=O)N1C[C@H](Oc2nccn3ccnc23)CC[C@H]1C` [Example 4, ((2R,5R)-5-(imidazo[1,2-a]pyrazin-8-yloxy)-2-methylpiperidin-1-yl)(2-propylphenyl)methanone] the value was 7.50; for `C[C@@H]1CC[C@@H](Oc2nccn3c(Br)cnc23)CN1C(=O)c1ccccc1-n1nccn1` [Example 33, (2-(2H-1,2,3-triazol-2-yl)phenyl)((2R,5R)-5-((3-bromoimidazo[1,2-a]pyrazin-8-yl)oxy)-2-methylpiperidin-1-yl)methanone], 8.05.
